A melting point compilation (Tetko et al.; mined from patent text by program, amines drawn as free bases though some values may be those of a salt)

melting point	Compound
234 to 236 °C	CN1Cc2c(cc3ccc4c(c3c2-c2ccc3c(c2)OCO3)OCO4)C1=O
118 °C	N#Cc1ccc(C(=O)NCc2nn(-c3ccccc3Cl)c(-c3ccc(Cl)cc3)c2C#N)cc1
105 to 106 °C	O=C(O)c1ccccc1OCCCCCOc1ccccc1C(=O)O
72 °C	CCOC(C#N)NC(=O)c1cccc(OC)c1 (stereo not given)
194 to 195 °C	Cc1nn(-c2ccc(F)cc2)cc1C(=O)O
140 to 142 °C	CCOc1cc(CN2CCc3cc(O)ccc3C2)cc(OCC)c1OCC
143 °C	NS(=O)(=O)c1ccc(-c2ccc(F)cc2F)cc1
136 to 137 °C	COC(=O)CCn1c(=O)n(CCN2CCN(c3cccc(OC)c3)CC2)c(=O)c2cscc21
168 to 172 °C	Nc1ccc(C(=O)N2CCCCc3sccc32)cc1
74 to 76 °C	COc1ccc(C#N)c2c1OC1(CCCC1)C2
75 to 77 °C	Clc1nc2ccccc2c2c(CCN3CCN(Cc4ccccc4)CC3)n(-c3ccccc3)nc12
290 to 292 °C	CC(C)=CCn1c(=O)sc2c(=O)[nH]c(N)nc21
< 30 °C	O=C[C@H]1CC[C@H](c2ccc(F)cc2)CC1
153 °C	CN1CCC(=C2c3ccsc3C(=O)Cn3ccnc32)CC1
46 to 48 °C	CCOc1ccc(C(=O)OC)c(Cl)n1
164 °C	CCCSc1nc(Sc2ccc(OC)cc2)c(C(=O)O)n1Cc1cc2c(cc1Cl)OCO2
170 °C	COc1ccc(-c2cc(=S)n(Cc3ccc(Cl)cc3Cl)nc2-c2ccc(OC)cc2)cc1
149 to 151 °C	CSc1cc2c(cc1C(F)(F)F)N(C(=O)Nc1cccc(OCCCN(C)C)c1)CC2
71 to 73 °C	CC(CC1(c2ccc(Cl)cc2)CCC1)NC=O (stereo not given)
161 °C	O=C(O)c1ccc(OCCCOc2ccccc2)cc1O
190 to 191 °C	CN1CC2C(C1)C2Nc1ncc2cc(-c3ccccc3Cl)c(=O)n(C3CC3)c2n1 (stereo not given)
135 to 137 °C	CCCCn1c(=O)c2cn(S(=O)(=O)c3ccc(OC(F)(F)F)cc3)nc2n(CCCC)c1=O
106 °C	N#CNC(=N)NC1CC1
236 to 238 °C	CC(=NC#N)N[C@@H]1c2cc(C#N)ccc2OC(C)(C)[C@H]1O (relative stereo)

melting point	Compound
135 °C	CCOC(=O)C(C(C)=O)C(CC(=O)c1ccccc1)c1ccc(OC)c(OC)c1 (stereo not given)
127 °C	CCOC(=O)c1c(-c2cccc(Cl)c2)c2cc(C(O)c3nc(-c4ccccc4)cs3)ccc2[nH]c1=O (stereo not given)
148 to 150 °C	Cn1ccc(-c2ccc(C(=O)N3Cc4cccn4Cc4ccccc43)c(Cl)c2)n1
86 to 88 °C	CC(C)(C)OC(=O)N1CC2CC(CN(CC(O)COc3ccccc3)C2)C1 (stereo not given)
195 to 198 °C	O=C1CC2=C(CCN1)c1ccccc1Sc1ccccc12
118 °C	N#Cc1ccc(Oc2ccccc2N)cc1C#N
> 250 °C	O=C1Nc2ncccc2C12COc1cc3c(cc12)OCCO3 (stereo not given)
72 to 74 °C	COC(=O)c1ccc(C(=O)N2CCCc3ccccc32)cc1
258 to 261 °C	Nc1nc(-c2ccc(CCCCN3CCN(c4nsc5ccccc45)CC3)cc2)cs1
112 to 113 °C	COc1c([N+](=O)[O-])cc(C#N)c(F)c1O
165 to 166 °C	CC(C)c1cccc(C(C)C)c1NC(=O)N(Cc1ccc(N(C)C)cc1)c1ccc(Br)cc1
114 to 115 °C	Clc1ccccc1OCC1(c2ccccc2)CCN(Cc2ccccc2)CCO1 (stereo not given)
161 to 164 °C	COc1ccc(C2=NN(C3CCN(S(=O)(=O)c4ccc(C)cc4)CC3)C(=O)C(C)(C)C2)cc1OC
102 to 103 °C	CC(C(=O)O)c1ccc(-n2cc(Cl)cn2)c(Cl)c1 (stereo not given)
97 to 99 °C	CC(C)OC(=O)C(C)Oc1ncn(-c2cccc(C(F)(F)F)c2)n1 (stereo not given)
120 to 122 °C	Clc1cnc2cccc(Cl)c2n1
134 to 135 °C	O=C(O)[C@H](Cc1cccc(OC(F)(F)C(F)F)c1)[C@@H](O)c1ccnc(F)c1 (racemic)
55 to 57 °C	Cc1oc(-c2ccccc2)nc1CC=Cc1ccc(CC2SC(=O)NC2=O)cc1 (stereo not given)
202 °C	O=C1CN(C(=O)c2ccc(Cl)cc2)N(Cc2ccc(Cl)cc2)C(=O)N1
104 °C	Cc1cc(=O)c(-c2ccc(Cl)c(Cl)c2)c(-c2ccccc2)o1
210 to 230 °C	O=C(O)/C=C\C(=O)Nc1ccc2c(=O)n3c(nc2c1)C(=Cc1ccccc1)CC3
170 to 173 °C	Cc1ccc([N+](=O)[O-])cc1Nc1cc(-c2cccnc2)ccn1
133 to 135 °C	COC(=O)C(O)C(C)(Oc1ccc(Br)cc1)c1ccccc1 (stereo not given)
199 to 204 °C	CN(C)c1nnc(-c2ccc(S(C)=O)cc2)c(-c2ccc(S(C)=O)cc2)n1 (stereo not given)

melting point	Compound
143 to 144 °C	Cc1oc(-c2ccco2)nc1COc1ccc(CO)cc1Cl
125 °C	CCCCCCCCCCC(C)(C)C(=O)Nc1c(C)c(N)c(C)c2c1OC(C)(C)C2
146 to 147 °C	Cc1ccc(S(=O)(=O)N2CC(O)CC2C(=O)O)cc1 (stereo not given)
78 to 80 °C	Cn1c(=O)c2c(ncn2CCCCCCl)n(C)c1=O
175 to 176 °C	CN1CNC(=S)N(c2ccccc2)C1
142 °C	CN1CCC(OC2c3ccccc3CCn3cc(-c4ccc(Br)cc4)nc32)CC1 (stereo not given)
157 to 158 °C	O=C(CCN1CCN(c2cccc(Cl)c2Cl)CC1)N1CCc2ccccc21
146 to 150 °C	CNC(=O)C1=CC(C)(C)Oc2ccc(C(F)(F)F)cc21
130 to 132 °C	COCCN1c2ccc([N+](=O)[O-])cc2CS1(=O)=O
179 to 181 °C	C[C@@H]1S[C@@H](C(=O)Nc2ccc(CN3CCSC3)cc2)Cc2cc3c(cc2C1=O)OCO3
259 to 261 °C	COc1ccc2ccc3c4cc5c(cc4nnc3c2c1)OCO5
315 to 318 °C	Cc1nc(-c2ccc(-c3cnc4[nH]c(=O)n(CC5CCCCC5)c4n3)cc2)n[nH]1
298 to 300 °C	Cn1cnc2nc(-c3cc(Cl)c(Cl)cc3C(=O)O)nn2c1=S
78 to 79 °C	CCN(CC)c1ccc(/C=C/c2ccccc2F)cc1
232 to 234 °C	CCCC(=O)c1cc(C(=O)O)c2cc(Cc3ccc(F)cc3)cnc2c1O
169 to 171 °C	Cc1ccc(-c2ccc3c(c2)C=C(C(=O)Nc2ccc(CN(C)C4CCSCC4)cc2)CO3)cc1
173 to 218 °C	COc1ccc(-c2ccncc2)cc1-c1ccc(Oc2ccccc2)cc1
167 to 169 °C	CCN(CC)CCNc1ccc(CNC)c2sc3ccc(O)cc3c(=O)c12
157 to 160 °C	O=c1c2c(oc3c1nnn3Cc1ccccc1)CCS2
81 to 83 °C	COC(=O)C1=C(C)NC(C)=C(C(=O)OCCCCCCS(=O)c2nc(C)cs2)C1c1cccc([N+](=O)[O-])c1 (stereo not given)
95 to 96 °C	CNC(=NO)Nc1ccccc1
131 to 133 °C	COc1ccc2[nH]c(-c3ccc(OC)c4nc(C(F)(F)F)ccc34)nc2c1
136 °C	C(=C\c1nc2ccccc2n1-c1ccccn1)/c1ccsc1
172 °C	CCOC(=O)c1cc(-c2ccc(-c3ccco3)cc2)n(-c2ccc(S(C)(=O)=O)c(F)c2)n1

melting point	Compound
109 to 111 °C	CC1(C)CON(Cc2ccc(N)cc2Br)C1=O
92 to 93 °C	CC(C)OCC(O)COc1ccc(/C=C/C(=O)O)c(Oc2ncc(C(F)(F)F)cc2Cl)c1 (stereo not given)
133 to 134 °C	O=C1Cc2ccccc2C(c2cccc(Cl)c2)N1 (stereo not given)
66 to 68 °C	CC(=O)N1CCN(N)c2ccccc2C1
184 to 186 °C	CC(C)(C)C1(Cl)Cc2cc(OCC(=O)O)c(Cl)c(Cl)c2C1=O (stereo not given)
103 to 105 °C	CC1(C)SCN(C(=O)[C@@H](O)[C@H](Cc2ccccc2)NC(=O)O[C@H]2CCOC2)[C@@H]1C(=O)N[C@H]1CCCc2ccccc21
153 to 155 °C	Cc1ccc(S(=O)(=O)OCC2COc3ccc4nc(C)c(C)nc4c3O2)cc1 (stereo not given)
112 to 113 °C	N#Cc1ccc(N(Cc2ccc(OCc3ccccc3)cc2)n2cncn2)cc1-c1ccccc1
95 to 96 °C	O=C(c1ccccc1)N1CCC(COc2ccccc2)CC1
206 to 207 °C	CCN(c1cccc2cc(C3=NCCS3)[nH]c12)S(=O)(=O)c1cccs1
154 to 155 °C	O=C1c2ccccc2CN1c1cccc(CCN2CCN(c3nsc4ccccc34)CC2)c1
167 to 169 °C	O=C1C[C@@H](Nc2ncnc3c2ncn3[C@@H]2O[C@H](CO)[C@@H](O)[C@H]2O)C(=O)N1
155 to 159 °C	CC(C)(C)NC(=O)c1ccc2ccccc2c1
136 to 137 °C	COc1ccc(C=CC=O)cc1OCc1nc(-c2ccccc2)oc1C
85 to 86 °C	COc1cc(O)ccc1CCCc1ccc(O)c(CC=C(C)C)c1
210 to 215 °C	C=CC=CC(=O)Nc1cc2c(Nc3cccc(Br)c3)ncnc2cn1
126 to 128 °C	CC(C)(C)CC(C)(C)c1cc(-n2nc3ccc(-c4cccnc4)cc3n2)c(O)c(C(C)(C)c2ccccc2)c1
266 to 269 °C	CN1CC(N(C)[C@@H]2c3cc(C#N)ccc3OC(C)(C)[C@H]2O)=CC1=O (relative stereo)
78 to 79 °C	CC1CN(C(=O)CCl)c2ccccc21 (stereo not given)
135 to 136 °C	Cc1ccc2nc(CN3CCN(c4ccc(Cl)cc4C#N)CC3)cn2c1
151 to 154 °C	CC(C)OC(=O)N1CCC(c2nc3cc(-c4ccc(C(F)F)cc4)ccc3o2)CC1
204 to 205 °C	Nc1ccc(S(=O)(=O)c2cc(N)nc(Br)c2)cc1
175 to 177 °C	O=C1N(Cc2cccnc2)c2ccccc2C12COc1cc(F)c(F)cc12 (stereo not given)
76 to 76.5 °C	COC1(c2ccc(C)cc2)CCC(=O)CC1

Compound	melting point
COC(=O)Cc1cc2c(s1)NC(=O)C(C)N=C2c1ccccc1Cl (stereo not given)	185 to 190 °C
O=C(c1cc2c(cc1F)OC(c1ccccc1Cl)(c1ccccc1Cl)O2)N1CCOCC1	98 °C
Cc1c(NC(=O)N2CC[C@H](O[Si](C)(C)C(C)(C)C)[C@H]2CO)ccc(C#N)c1Cl	174 to 176 °C
CCCCCCC(C)(C)c1cc(O)c2c(c1)oc(=O)c1ccc(O)cc12	103 to 108 °C
